Experimental data published in ChEMBL document CHEMBL5441381, “ASAP - In vitro antiviral effect” (2024).
“And” between values parts separate entries of the source, which are not always exact repeats. Equal values may be shown once.

Key:
SARS-CoV-2 [1] = experiment: (§1) Functional immunofluorescence assay to measure dose dependent changes in antiviral-drug inhibitory efficacy against hCoV-19/USA-WA1/2020 in HeLa-ACE2 cells which are seeded prior to drug treatment, then infected with hCoV-19/USA-WA1/2020. Cells are fixed with 10 % formaldehyde, washed with PBS, permeabilized with permeabilization buffer, then washed with wash buffer. The cells are incubated with nucleoprotein primary antibody IC7C7. Following primary staining, cells are washed with wash buffer and incubated in a solution of with Alexa fluor 488 and DAPI. Infected and uninfected cells are visualized and analyzed by Gen5 software. The assay has been performed by Icahn School of Medicine at Mount Sinai.; format: organism-based, Homo sapiens
SARS-CoV-2 [2] = experiment: as §1, with “iPSC-Pneumocyte” for “HeLa-ACE2”, “to” for “to drug”; format: organism-based, Homo sapiens
[3] = tested on: Middle East respiratory syndrome-related coronavirus; experiment: microbe, parasite or virus in culture; format: functional, organism-based, Chlorocebus sabaeus, VeroE6/TMPRSS2
[4] = Severe acute respiratory syndrome coronavirus 2, Pneumocyte
[5] = Severe acute respiratory syndrome coronavirus 2, HeLa-ACE2
[6] = Middle East respiratory syndrome-related coronavirus, VeroE6/TMPRSS2

CC(C)[C@@H](Nc1ncnc2[nH]ccc12)c1ccc2c(c1)S(=O)(=O)CCC2
EC90 (SARS-CoV-2 [1]; Severe acute respiratory syndrome coronavirus 2, HeLa-ACE2, Baseline response 0 %, Hill slope -1.838, Maximum measured 112.988 %, Maximum response 100 %, Minimum measured 76.031 %, R squared 0.586): > 50 µM
EC90 (SARS-CoV-2 [1]; Severe acute respiratory syndrome coronavirus 2, HeLa-ACE2, Baseline response 0 %, Hill slope -2.172, Maximum measured 117.108 %, Maximum response 100 %, Minimum measured 66.698 %, R squared 0.616): > 20 µM
EC50 (SARS-CoV-2 [1]; hela-ace2): > 50 µM
EC50 (SARS-CoV-2 [2]; [4]): > 50 µM
EC90 (SARS-CoV-2 [2]; Severe acute respiratory syndrome coronavirus 2, Pneumocyte, Baseline response 0 %, Hill slope -1.893, Maximum measured 187.741 %, Maximum response 100 %, Minimum measured 35.01 %, R squared 0.158): > 50 µM
EC90 (SARS-CoV-2 [2]; Severe acute respiratory syndrome coronavirus 2, Pneumocyte, Maximum measured 138.005 %, Minimum measured 85.609 %): > 50 µM
EC50 (SARS-CoV-2 [2]; pneumocyte): 29.9 µM

CC(C)[C@@H](Nc1ncnc2[nH]c(C(=O)N[C@H]3CCN(C)C3)cc12)c1ccc2c(c1)S(=O)(=O)CCC2
EC50 (SARS-CoV-2 [1]; [5]): > 20 µM
EC90 (SARS-CoV-2 [1]; Severe acute respiratory syndrome coronavirus 2, HeLa-ACE2, Baseline response 0 %, Hill slope -0.107, Maximum measured 102.123 %, Maximum response 100 %, Minimum measured 84.181 %, R squared 0.016): > 20 µM
EC50 (SARS-CoV-2 [2]; [4]): > 50 µM
EC90 (SARS-CoV-2 [2]; Severe acute respiratory syndrome coronavirus 2, Pneumocyte, Baseline response 0 %, Hill slope -0.859, Maximum measured 114.501 %, Maximum response 100 %, Minimum measured 59.767 %, R squared 0.551): > 50 µM

CNC(=O)c1cc2c(N[C@@H](c3ccc4c(c3)OCCO4)C(C)C)ncnc2[nH]1
EC50 (SARS-CoV-2 [1]; [5]): > 50 µM
EC90 (SARS-CoV-2 [1]; Severe acute respiratory syndrome coronavirus 2, HeLa-ACE2, Baseline response 0 %, Hill slope -1.825, Maximum measured 114.293 %, Maximum response 100 %, Minimum measured 64.264 %, R squared 0.688): > 50 µM
EC50 (SARS-CoV-2 [2]; [4]): > 50 µM
EC90 (SARS-CoV-2 [2]; Severe acute respiratory syndrome coronavirus 2, Pneumocyte, Maximum measured 153.61 %, Minimum measured 91.144 %): > 50 µM

CC(C)[C@H](Nc1ncnc2[nH]c(-c3cnn(CC(N)=O)c3)cc12)c1ccc2c(c1)S(=O)(=O)CCC2
EC50 (SARS-CoV-2 [1]; [5]): > 20 µM
EC90 (SARS-CoV-2 [1]; Severe acute respiratory syndrome coronavirus 2, HeLa-ACE2, Baseline response 0 %, Hill slope 1.066, Maximum measured 108.399 %, Maximum response 100 %, Minimum measured 92.21 %, R squared 0.046): > 20 µM
EC50 (SARS-CoV-2 [2]; [4]): > 50 µM
EC90 (SARS-CoV-2 [2]; Severe acute respiratory syndrome coronavirus 2, Pneumocyte, Baseline response 0 %, Hill slope -0.706, Maximum measured 119.318 %, Maximum response 100 %, Minimum measured 70.174 %, R squared 0.133): > 50 µM

CCNC(=O)c1cc2c(N[C@@H](c3ccc4c(c3)OCCO4)C(C)C)ncnc2[nH]1
EC50 (SARS-CoV-2 [1]; [5]): > 20 µM
EC90 (SARS-CoV-2 [1]; Severe acute respiratory syndrome coronavirus 2, HeLa-ACE2, Baseline response 0 %, Hill slope -1.909, Maximum measured 113.12 %, Maximum response 100 %, Minimum measured 80.543 %, R squared 0.285): > 20 µM
EC90 (SARS-CoV-2 [1]; Severe acute respiratory syndrome coronavirus 2, HeLa-ACE2, Maximum measured 94.861 %, Minimum measured 54.623 %): > 20 µM
EC90 (SARS-CoV-2 [1]; Severe acute respiratory syndrome coronavirus 2, HeLa-ACE2, Maximum measured 122.873 %, Minimum measured 70.184 %): > 20 µM
EC50 (SARS-CoV-2 [2]; [4]): 41.1 µM
EC90 (SARS-CoV-2 [2]; Severe acute respiratory syndrome coronavirus 2, Pneumocyte, Baseline response 0 %, Hill slope -8.576, Maximum measured 136.848 %, Maximum response 100 %, Minimum measured 15.577 %, R squared 0.308): > 50 µM

CNCc1cc(-c2cc3c(N[C@@H](c4ccc5c(c4)S(=O)(=O)NCC5)C(C)C)ncnc3[nH]2)co1
EC50 (SARS-CoV-2 [1]; [5]): > 20 µM
EC90 (SARS-CoV-2 [1]; Severe acute respiratory syndrome coronavirus 2, HeLa-ACE2, Baseline response 0 %, Hill slope -0.236, Maximum measured 99.818 %, Maximum response 100 %, Minimum measured 81.688 %, R squared 0.12): > 20 µM
EC50 (SARS-CoV-2 [2]; [4]): 30.7 µM
EC90 (SARS-CoV-2 [2]; Severe acute respiratory syndrome coronavirus 2, Pneumocyte, Baseline response 0 %, Hill slope -1.273, Maximum measured 102.14 %, Maximum response 100 %, Minimum measured 30.967 %, R squared 0.783): > 50 µM

CC(C)[C@@H](Nc1ncnc2[nH]ccc12)c1ccc2c(c1)NC(=O)CO2
EC50 (SARS-CoV-2 [1]; [5]): > 50 µM
EC90 (SARS-CoV-2 [1]; Severe acute respiratory syndrome coronavirus 2, HeLa-ACE2, Baseline response 0 %, Hill slope -2.239, Maximum measured 123.573 %, Maximum response 100 %, Minimum measured 69.199 %, R squared 0.469): > 50 µM
EC50 (SARS-CoV-2 [2]; [4]): > 50 µM
EC90 (SARS-CoV-2 [2]; Severe acute respiratory syndrome coronavirus 2, Pneumocyte, Maximum measured 145.289 %, Minimum measured 92.172 %): > 50 µM

CC(C)[C@H](Nc1ncnc2[nH]c(-c3cnn(C)c3C#N)cc12)c1ccc2c(n1)OCCO2
EC50 [3, 6]: > 5 µM
EC90 [3, 6]: > 5 µM
EC90 (SARS-CoV-2 [1]; Baseline response 0 %, EC90 CI (lower) 0.11 uM, EC90 CI (upper) 0.158 uM, Hill slope -1.629, Maximum measured 105.242 %, Maximum response 100 %, Minimum measured 1.508 %, R squared 0.979): 1.96 µM
EC50 (SARS-CoV-2 [1]; [5]): 0.819 µM
EC90 (SARS-CoV-2 [1]; Severe acute respiratory syndrome coronavirus 2, HeLa-ACE2, Baseline response 0 %, EC90 CI (lower) 0.09 uM, EC90 CI (upper) 0.442 uM, Hill slope -1.557, Maximum measured 125.33 %, Maximum response 100 %, Minimum measured 4.425 %, R squared 0.913): 3.36 µM
EC50 (SARS-CoV-2 [1]; hela-ace2): 0.508 µM

CC(C)[C@H](Nc1ncnc2[nH]ccc12)c1ccc2c(c1)S(=O)(=O)CCC2
EC90 [3]: > 20 µM
EC50 ([3]; veroe6/tmprss2): 2.42 µM and > 20 µM and > 5 µM
EC50 (SARS-CoV-2 [1]; [5]): > 20 µM
EC90 (SARS-CoV-2 [1]; Severe acute respiratory syndrome coronavirus 2, HeLa-ACE2, Maximum measured 129.029 %, Minimum measured 103.942 %): > 20 µM
EC90 (SARS-CoV-2 [1]; Severe acute respiratory syndrome coronavirus 2, HeLa-ACE2, Maximum measured 158.705 %, Minimum measured 84.767 %): > 20 µM
